By IC50 is commonly meant the concentration needed to halve the response being measured.

Molecules are shown by their SMILES.

His-Tagged hOGA (human O-GlcNAcase), sequence (O60502 whole entry): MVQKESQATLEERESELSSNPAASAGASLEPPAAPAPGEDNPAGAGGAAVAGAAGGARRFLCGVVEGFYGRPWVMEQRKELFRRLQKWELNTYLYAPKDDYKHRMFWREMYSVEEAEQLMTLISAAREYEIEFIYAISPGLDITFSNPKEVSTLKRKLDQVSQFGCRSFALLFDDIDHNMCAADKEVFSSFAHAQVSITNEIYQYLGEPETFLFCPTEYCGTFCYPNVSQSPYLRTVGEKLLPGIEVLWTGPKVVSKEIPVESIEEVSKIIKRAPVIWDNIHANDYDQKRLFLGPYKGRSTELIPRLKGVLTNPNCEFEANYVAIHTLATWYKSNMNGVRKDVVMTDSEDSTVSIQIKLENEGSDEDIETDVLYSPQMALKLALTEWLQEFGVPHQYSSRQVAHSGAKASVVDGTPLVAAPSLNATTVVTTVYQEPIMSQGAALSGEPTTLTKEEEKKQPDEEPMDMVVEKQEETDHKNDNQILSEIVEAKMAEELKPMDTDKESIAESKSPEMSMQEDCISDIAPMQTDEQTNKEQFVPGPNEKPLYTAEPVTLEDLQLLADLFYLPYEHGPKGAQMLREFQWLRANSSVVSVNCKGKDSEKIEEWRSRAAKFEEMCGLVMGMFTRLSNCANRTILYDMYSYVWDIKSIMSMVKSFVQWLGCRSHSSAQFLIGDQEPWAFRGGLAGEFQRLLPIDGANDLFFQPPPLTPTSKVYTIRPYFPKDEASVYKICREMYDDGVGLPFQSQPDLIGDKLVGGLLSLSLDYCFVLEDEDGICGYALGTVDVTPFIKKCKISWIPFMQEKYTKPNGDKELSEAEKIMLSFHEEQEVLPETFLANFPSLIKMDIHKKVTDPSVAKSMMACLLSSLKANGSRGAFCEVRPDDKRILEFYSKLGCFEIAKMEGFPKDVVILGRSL

The first assay addresses His-Tagged hOGA (human O-GlcNAcase) (Homo sapiens (Human), UniProt O60502). The assay is described as follows: Human O-GlcNAcase enzyme inhibition assay.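 Further: reactions contained 20 nM His-tagged hOGA enzyme with 10 µM FL-GlcNAc substrate.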 The assay is classed as biochemical. The conditions noted are these: OGA IC50 (M), FL-GlcNAc substrate, pH 6.5, activity classes defined in μM.
Procedure: Then, 20 nM of His-Tagged hOGA and 10 μM of FL-GlcNAc (Fluorescein mono-beta-D-(2-deoxy-2-N-acetyl) glucopyranoside; Marker Gene Technologies Inc, M1485) were added to the 384-well plate for a final volume of 20 μl.
In the case of `CC(O)c1nnc(N2CCN(C(C)c3ccc4nccnc4c3)CC2)s1` (racemic) [Example 115, 1-(5-(4-(1-(quinoxalin-6-yl)ethyl)piperazin-1-yl)-1,3,4-thiadiazol-2-yl)ethan-1-ol], the IC50 is 2e-07 to 1e-06 M.
Molecule `CC(c1ccc2nccnc2c1)N1CCC(n2cc(C(F)(F)F)cn2)CC1` (centres unmarked) [Example 31] returned an IC50 of 1e-06 to 1e-05 M.
On the same count and under the same terms, the result for `CC(c1ccc2nccnc2c1)N1CCN(c2ccc(=O)[nH]n2)CC1` (centres unmarked) [Example 39] reads 5e-08 to 2e-07 M.

The same assay, now with this note: OGA enzyme inhibition assay; FL-GlcNAc substrate, pH 6.5; activity classes defined in μM; read-out: OGA IC50.
Regarding `CC(=O)NC(C)(C)c1cnc(N2CCN(C(C)c3ccc4nccnc4c3)CC2)nc1` (racemic) [Example 107, N-(2-(2-(4-(1-(quinoxalin-6-yl)ethyl)piperazin-1-yl)pyrimidin-5-yl)propan-2-yl)acetamide], the IC50 was 2e-07 to 1e-06 M.
In the case of `CC(=O)NCc1nnc(N2CCN(C(C)c3ccc4c(c3)OCC4)CC2)s1` (racemic) [Example 110], the IC50 is less than 5e-08 M.
Regarding `CC(=O)Nc1nnc(N2CCN(C(C)c3cnc4cccnc4c3)CC2)s1` (racemic) [Example 111, N-(5-(4-(1-(1,5-naphthyridin-3-yl)ethyl)piperazin-1-yl)-1,3,4-thiadiazol-2-yl)acetamide], the IC50 was 5e-08 to 2e-07 M.
Take `CC(=O)NCc1nnc(N2CCN(C(C)c3ccc4nccnc4c3)CC2)s1` (racemic) [Example 112, N-((5-(4-(1-(quinoxalin-6-yl)ethyl)piperazin-1-yl)-1,3,4-thiadiazol-2-yl)methyl)acetamide]: the IC50 lay within 5e-08 to 2e-07 M.
Still for that read-out and setting: the result for `CC(c1ccc2c(c1)OCC2)N1CCN(c2nnc(CO)s2)CC1` (racemic) [Example 113, (5-(4-(1-(2,3-dihydrobenzofuran-6-yl)ethyl)piperazin-1-yl)-1,3,4-thiadiazol-2-yl)methanol] reads less than 5e-08 M.
Regarding `CC(O)c1nnc(N2CCN(C(C)c3ccc4c(c3)OCC4)CC2)s1` (racemic) [Example 114, 1-(5-(4-(1-(2,3-dihydrobenzofuran-6-yl)ethyl)piperazin-1-yl)-1,3,4-thiadiazol-2-yl)ethan-1-ol], the IC50 was less than 5e-08 M.
In the case of `Cc1nnc(N2CCN(C(C)c3ccc4nccnc4c3)CC2)s1` (racemic) [Example 116, 2-methyl-5-(4-(1-(quinoxalin-6-yl)ethyl)piperazin-1-yl)-1,3,4-thiadiazolequinoxaline], the IC50 was 2e-07 to 1e-06 M.
With `CCOC(=O)c1nnc(N2CCN(C(C)c3ccc4c(c3)OCC4)CC2)s1` (racemic) [Example 117, Ethyl 5-(4-(1-(2,3-dihydrobenzofuran-6-yl)ethyl)piperazin-1-yl)-1,3,4-thiadiazole-2-carboxylate], the IC50 fell in the range of 5e-08 to 2e-07 M.
Turning to `CNC(=O)c1nnc(N2CCN(C(C)c3ccc4c(c3)OCC4)CC2)s1` (racemic) [Example 118, 5-(4-(1-(2,3-dihydrobenzofuran-6-yl)ethyl)piperazin-1-yl)-N-methyl-1,3,4-thiadiazole-2-carboxamide], the IC50 is less than 5e-08 M.
For the molecule `CC(c1ccc2c(c1)OCC2)N1CCN(c2nnc(C(=O)N(C)C)s2)CC1` (racemic) [Example 119, 5-(4-(1-(2,3-dihydrobenzofuran-6-yl)ethyl)piperazin-1-yl)-N,N-dimethyl-1,3,4-thiadiazole-2-carboxamide], the IC50 was less than 5e-08 M.
On the same count and under the same terms, to `CCOC(=O)c1nnc(N2CCN(C(C)c3ccc4nccnc4c3)CC2)s1` (racemic) [Example 120, Ethyl 5-(4-(1-(quinoxalin-6-yl)ethyl)piperazin-1-yl)-1,3,4-thiadiazole-2-carboxylate] belongs 1e-06 to 1e-05 M.
As for `CNC(=O)c1nnc(N2CCN(C(C)c3ccc4nccnc4c3)CC2)s1` (racemic) [Example 121, N-methyl-5-(4-(1-(quinoxalin-6-yl)ethyl)piperazin-1-yl)-1,3,4-thiadiazole-2-carboxamide], the IC50 was 2e-07 to 1e-06 M.
As to `CC(c1ccc2nccnc2c1)N1CCN(c2nnc(C(=O)N(C)C)s2)CC1` (racemic) [Example 122, N,N-dimethyl-5-(4-(1-(quinoxalin-6-yl)ethyl)piperazin-1-yl)-1,3,4-thiadiazole-2 carboxamide], the IC50 fell in the range of 2e-07 to 1e-06 M.
For `CC(c1ccc2c(c1)OCC2)N1CCN(c2nnc(CN(C)C)s2)CC1` (racemic) [Example 123, 1-(5-(4-(1-(2,3-dihydrobenzofuran-6-yl)ethyl)piperazin-1-yl)-1,3,4-thiadiazol-2-yl)-N,N-dimethylmethanamine], the IC50 is less than 5e-08 M.
In the case of `CC(c1ccc2c(c1)OCC2)N1CCN(c2nnc(CN)s2)CC1` (racemic) [Example 124, (5-(4-(1-(2,3-dihydrobenzofuran-6-yl)ethyl)piperazin-1-yl)-1,3,4-thiadiazol-2-yl)methanamine], the half-inhibitory concentration (IC50) is less than 5e-08 M.
`CC(c1ccc2nccnc2c1)N1CCN(c2nnc(CN(C)C)s2)CC1` (racemic) [Example 125, N,N-dimethyl-1-(5-(4-(1-(quinoxalin-6-yl)ethyl)piperazin-1-yl)-1,3,4-thiadiazol-2-yl)methanamine]: the concentration for half-maximal inhibition (IC50) fell in the range of 2e-07 to 1e-06 M.
Take `CC(c1ccc2nccnc2c1)N1CCN(c2nnc(CN)s2)CC1` (racemic) [Example 126, (5-(4-(1-(quinoxalin-6-yl)ethyl)piperazin-1-yl)-1,3,4-thiadiazol-2-yl)methanamine]: the IC50 was 2e-07 to 1e-06 M.
Turning to `CC(c1ccc2c(c1)OCC2)N1CCN(c2nc3c(s2)CNCC3)CC1` (single isomer, unassigned) [Example 17], the IC50 is less than 5e-08 M.
For the molecule `CC(c1ccc2nccnc2c1)N1CCN(c2ccc(=O)[nH]n2)CC1` (single isomer, unassigned) [Example 38, (S)-6-(4-(1-(quinoxalin-6-yl)ethyl)piperazin-1-yl)pyridazin-3(2H)-one or (R)-6-(4-(1-(quinoxalin-6-yl)ethyl)piperazin-1-yl)pyridazin-3(2H)-one], the IC50 was 5e-08 to 2e-07 M.
On to `CC(=O)Nc1nnc(N2CCN(C(C)c3ccc4c(c3)OCC4)CC2)s1` (single isomer, unassigned) [Example 108], for which the concentration for half-maximal inhibition (IC50) was in the range of 1e-06 to 1e-05 M.
Same read-out and setting: the result for `CC(=O)Nc1nnc(N2CCN(C(C)c3ccc4c(c3)OCC4)CC2)s1` (single isomer, unassigned) [Example 109] reads less than 5e-08 M.
Regarding `C[C@@H](c1cnc2cccnc2c1)N1CCN(c2ncc(C(F)(F)F)cn2)CC1` [Example 221], the IC50 is 2e-07 to 1e-06 M.
Turning to `CC(=O)Nc1nnc(N2CCN([C@@H](C)c3cnc4cccnc4c3)CC2)s1` [Example 222], the IC50 is 5e-08 to 2e-07 M.

Source of the values: US10556902B2 (Asceneuron SA, priority 2016, dated 2020).
